# How the values were obtained:
# Format in all cases: biochemical
# human GSK3 beta = target: T1, human GSK3 beta (Homo sapiens, UniProt P49841); experiment: GSK3 beta enzyme assay (ADP-Glo); conditions: ATP 25 μM, read-out: GSK3b IC50
# T1 construct: Recombinant full-length human GSK3 beta (expressed in Sf9 insect cells with an N-terminal His tag); His (N); purchased SignalChem G09-10H; host or cells: Sf9 insect cells
# Experimental: 1. GSK3 Beta Enzyme Assay
# The ability of compounds to inhibit human GSK3 beta kinase activities was determined using a commercially available ADP-Glo™ Kinase Assay kit (Promega, Cat #V9102) according to the manufacturer's protocol. The ADP-Glo™ Kinase Assay is a luminescent ADP detection assay that provides a universal, homogeneous, high-throughput screening method to measure kinase activity by quantifying the amount of ADP produced during a kinase reaction. The ADP-Glo™ Kinase Assay can be used to monitor the activity of virtually any ADP-generating enzymes (e.g., kinases or ATPases).
# Recombinant full-length human GSK3 beta (expressed in Sf9 insect cells with an N-terminal His tag) was purchased from SignalChem (Cat #G09-10H). The GSK3 substrate peptide (sequence: […](pS)EDEEE) was purchased from SignalChem (Cat #G50-58). This assay, run in a 384-well plate format, is a generic method for measuring kinase activities using an ADP-Glo Kinase Assay Kit. The basic assay procedure involves two steps: (1) Enzymatic step: inhibitors are incubated with the kinase and then ATP (included in the ADP-Glo Kinase Assay Kit) and the GSK3 substrate peptide are added to start the enzymatic reaction; (2) Detection step: after the kinase reaction, first ADP-Glo™ Reagent is added to terminate the kinase reaction and deplete the remaining ATP. Second, the Kinase Detection Reagent is added to simultaneously convert ADP to ATP and allow the newly synthesized ATP to be measured using a luciferase/luciferin reaction. The light generated is measured using a luminometer.
# (§1) Briefly, GSK3 beta (4 nM) in the enzymatic buffer solutions (40 mM Tris, pH 7.5, 20 mM MgCl2, 0.1 mg/ml BSA, 50 μM DTT) were mixed with various concentrations of inhibitors (dissolved in 100% DMSO). These solutions were incubated for 30 minutes at 25° C., and subsequently a mixture of substrate peptide and ATP was added with the final peptide and ATP concentrations at 13 μM and 25 μM, respectively. The final reaction mixture of enzyme-substrate-ATP-compound was incubated for 60 minutes at 25° C.
# (§2) Afterwards ADP-Glo™ Reagent was added and the mixture was incubated at 25° C. for 60 minutes. Then Kinase Detection Reagent was added and the final mixture was incubated at 25° C. for 60 minutes. The luminescence signal of the final solution was measured on an Envision instrument (PerkinElmer). The percent (%) inhibition at each concentration of a compound is calculated relative to the luminescence signal in the Max and Min control wells contained within each assay plate. […] The concentrations and percent inhibition values for a test compound are plotted and the concentration of the compound required to achieve 50% inhibition (IC50) is determined with a four-parameter logistic dose response equation.
# human DYRK1A = target: T2, human DYRK1A (Homo sapiens, UniProt Q13627); experiment: DYRK1A enzyme assay (ADP-Glo); conditions: ADP-Glo, ATP 60 μM; read-out: DYRK1A IC50
# T2 construct: Recombinant full-length DYRK1A (expressed in E. Coli cells with an N-terminal GST tag); GST (N); purchased SignalChem D09-10G; host or cells: E. coli
# Experimental: The ability of compounds to inhibit human DYRK1A kinase activities was determined using a commercially available ADP-Glo™ Kinase Assay kit (Promega, Cat #V9102) according to the manufacturer's protocol.
# Recombinant full-length DYRK1A (expressed in E. Coli cells with an N-terminal GST tag) was purchased from SignalChem (Cat #D09-10G). The DYRK substrate peptide (DYRKtide, sequence: […]) was purchased from SignalChem (Cat #D96-58). This assay, run in a 384-well plate format, is a generic method for measuring kinase activities using an ADP-Glo Kinase Assay Kit. The basic assay procedure involves two steps: (1) Enzymatic step: inhibitors are incubated with the kinase and then ATP (included in the ADP-Glo Kinase Assay Kit) and the DYRKtide are added to start the enzymatic reaction; (2) Detection step: after the kinase reaction, first ADP-Glo™ Reagent is added to terminate the kinase reaction and deplete the remaining ATP. Second, the Kinase Detection Reagent is added to simultaneously convert ADP to ATP and allow the newly synthesized ATP to be measured using a luciferase/luciferin reaction. The light generated is measured using a luminometer.
# as §1, with “Briefly, DYRK1A (3” for “Briefly, GSK3 beta (4”, “at 20” for “at 13”, “and 60” for “and 25”
# as §2
# human CLK1 = target: T3, human CLK1 (Homo sapiens, UniProt P49759); experiment: CLK1 enzyme assay (ADP-Glo); conditions: ADP-Glo, ATP 10 μM; read-out: CLK1 IC50
# T3 construct: Recombinant human CLK1 (129-end); GST (N); purchased SignalChem C57-11G; host or cells: Sf9 insect cells
# Experimental: The ability of compounds to inhibit human CLK1 kinase activities was determined using a commercially available ADP-Glo™ Kinase Assay kit (Promega, Cat #V9102) according to the manufacturer's protocol.
# Recombinant human CLK1 (129-end) (expressed in Sf9 insect cells with an N-terminal GST tag) was purchased from SignalChem (Cat #C57-11G). Recombinant full length human MBP (expressed in E. Coli cells with an N-terminal GST tag.) was purchased from SignalChem (Cat #M42-54G). This assay, run in a 384-well plate format, is a generic method for measuring kinase activities using an ADP-Glo Kinase Assay Kit. The basic assay procedure involves two steps: (1) Enzymatic step: inhibitors are incubated with the kinase and then ATP (included in the ADP-Glo Kinase Assay Kit) and the MBP protein are added to start the enzymatic reaction; (2) Detection step: after the kinase reaction, first ADP-Glo™ Reagent is added to terminate the kinase reaction and deplete the remaining ATP. Second, the Kinase Detection Reagent is added to simultaneously convert ADP to ATP and allow the newly synthesized ATP to be measured using a luciferase/luciferin reaction. The light generated is measured using a luminometer.
# as §1, with “Briefly, CLK1 (16” for “Briefly, GSK3 beta (4”, “at 2” for “at 13”, “and 10” for “and 25”
# as §2
# T3 sequence (P49759 129-484 limits assumed): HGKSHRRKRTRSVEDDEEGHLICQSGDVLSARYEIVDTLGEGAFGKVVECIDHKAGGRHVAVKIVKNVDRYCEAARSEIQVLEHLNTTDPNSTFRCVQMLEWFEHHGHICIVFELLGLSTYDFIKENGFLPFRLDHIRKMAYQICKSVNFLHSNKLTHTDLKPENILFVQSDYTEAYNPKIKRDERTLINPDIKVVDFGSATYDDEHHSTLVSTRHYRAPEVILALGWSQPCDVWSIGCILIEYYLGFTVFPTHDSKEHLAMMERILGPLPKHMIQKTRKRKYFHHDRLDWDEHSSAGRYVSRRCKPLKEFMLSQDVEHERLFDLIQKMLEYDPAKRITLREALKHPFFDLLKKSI
# T1 sequence (P49841 whole entry): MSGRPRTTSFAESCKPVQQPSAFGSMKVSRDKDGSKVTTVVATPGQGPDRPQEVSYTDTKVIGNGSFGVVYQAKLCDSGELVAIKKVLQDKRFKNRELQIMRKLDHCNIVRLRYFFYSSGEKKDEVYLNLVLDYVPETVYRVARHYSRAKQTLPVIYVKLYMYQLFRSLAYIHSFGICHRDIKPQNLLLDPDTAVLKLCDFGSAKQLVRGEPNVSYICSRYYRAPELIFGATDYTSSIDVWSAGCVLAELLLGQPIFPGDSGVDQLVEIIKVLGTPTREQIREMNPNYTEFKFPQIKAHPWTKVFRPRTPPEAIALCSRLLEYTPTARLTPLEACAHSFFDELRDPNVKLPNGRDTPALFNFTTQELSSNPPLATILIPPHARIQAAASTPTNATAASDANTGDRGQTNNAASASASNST
SMILES,IC50 (human GSK3 beta) [nM],IC50 (human DYRK1A) [nM],IC50 (human CLK1) [nM]
"Cn1cnc2cc(NC3=N/C(=C\c4ccc5ncsc5c4)C(=O)N3)ccc21 [Example 61, (Z)-5-(benzo[d]thiazol-6-ylmethylene)-2-((1-methyl-1H-benzo[d]imidazol-5-yl)amino)-3,5-dihydro-4H-imidazol-4-one]",100 to 1000,< 100,100 to 1000
"O=C1NC(Nc2ccccc2)=N/C1=C\c1ccc2sccc2c1 [Example 72, (Z)-5-(benzo[b]thiophen-5-ylmethylene)-2-(phenylamino)-3,5-dihydro-4H-imidazol-4-one]",> 10000,> 10000,> 10000
"CN(CC1CC1)C1=N/C(=C\c2ccc3ncsc3c2)C(=O)N1 [Example 33, (Z)-5-(benzo[d]thiazol-6-ylmethylene)-2-((cyclopropylmethyl)(methyl)amino)-3,5-dihydro-4H-imidazol-4-one]",> 10000,1000 to 10000,100 to 1000
"O=C1NC(Nc2ccc3ncsc3c2)=N/C1=C\c1ccc2nc[nH]c2c1 [Example 76, (Z)-5-((1H-benzo[d]imidazol-6-yl)methylene)-2-(benzo[d]thiazol-6-ylamino)-3,5-dihydro-4H-imidazol-4-one]",100 to 1000,< 100,< 100
"CN(CC1CC1)C1=N/C(=C\c2ccc3c(c2)OCCO3)C(=O)N1 [Example 19, (Z)-2-((cyclopropylmethyl)(methyl)amino)-5-((2,3-dihydrobenzo[b][1,4]dioxin-6-yl)methylene)-3,5-di hydro-4H-imidazol-4-one]",> 10000,100 to 1000,1000 to 10000
"O=C1NC(N(CC2CC2)c2ccccc2)=N/C1=C\c1ccc2c(c1)OCO2 [Example 10, (Z)-5-(benzo[d][1,3]dioxol-5-ylmethylene)-2-((cyclopropylmethyl)(phenyl)amino)-3,5-dihydro-4H-imidazol-4-one]",> 10000,100 to 1000,100 to 1000
"CN(C1=N/C(=C\c2ccc3c(c2)OC(F)(F)O3)C(=O)N1)c1ccccc1 [Example 17, (Z)-5-((2,2-difluorobenzo[d][1,3]dioxol-5-yl)methylene)-2-(methyl(phenyl)amino)-3,5-dihydro-4H-imidazol-4-one]",> 10000,> 10000,> 10000
"COc1ccc(N(C)C2=N/C(=C\c3ccc4c(c3)OCO4)C(=O)N2)cc1 [Example 12, (Z)-5-(benzo[d][1,3]dioxol-5-ylmethylene)-2-((4-methoxyphenyl)(methyl)amino)-3,5-dihydro-4H-imidazol-4-one]",> 10000,100 to 1000,100 to 1000
"O=C1NC(Nc2ccccc2)=N/C1=C\c1ccc2[nH]ccc2c1 [Example 51, (Z)-5-((1H-indol-5-yl)methylene)-2-(phenylamino)-3,5-dihydro-4H-imidazol-4-one]",> 10000,> 10000,> 10000
"O=C1NC(Nc2ccccc2)=N/C1=C\c1ccc2cn[nH]c2c1 [Example 54, (Z)-5-((1H-indazol-6-yl)methylene)-2-(phenylamino)-3,5-dihydro-4H-imidazol-4-one]",> 10000,> 10000,> 10000
"CN(C1=N/C(=C\c2ccc3c(c2)OCO3)C(=O)N1)c1ccc2ncsc2c1 [Example 70, (Z)-5-(benzo[d][1,3]dioxol-5-ylmethylene)-2-(benzo[d]thiazol-6-yl(methyl)amino)-3,5-dihydro-4H-imidazol-4-one]",> 10000,> 10000,< 100
"O=C1NC(Nc2ccc3c(c2)OCCO3)=N/C1=C\c1ccc2ncsc2c1 [Example 81, (Z)-5-(benzo[d]thiazol-6-ylmethylene)-2-((2,3-dihydrobenzo[b][1,4]dioxin-6-yl)amino)-3,5-dihydro-4H-imidazol-4-one]",100 to 1000,< 100,< 100
"CN(C1=N/C(=C\c2ccc3c(c2)OCCO3)C(=O)N1)c1ccccc1 [Example 8, (Z)-5-((2,3-dihydrobenzo[b][1,4]dioxin-6-yl)methylene)-2-(methyl(phenyl)amino)-3,5-dihydro-4H-imidazol-4-one]",> 10000,1000 to 10000,1000 to 10000
"COc1ccccc1N(C)C1=N/C(=C\c2ccc3c(c2)OCO3)C(=O)N1 [Example 21, (Z)-5-(benzo[d][1,3]dioxol-5-ylmethylene)-2-((2-methoxyphenyl)(methyl)amino)-3,5-dihydro-4H-imidazol-4-one]",> 10000,100 to 1000,1000 to 10000
"O=C1NC(Nc2ccccc2)=N/C1=C\c1ccc2occc2c1 [Example 52, (Z)-5-(benzofuran-5-ylmethylene)-2-(phenylamino)-3,5-dihydro-4H-imidazol-4-one]",> 10000,> 10000,100 to 1000
"O=C1NC(N(CC2CC2)c2ccc3ncsc3c2)=N/C1=C\c1ccc2ncsc2c1 [Example 105, (Z)-2-(benzo[d]thiazol-6-yl(cyclopropylmethyl)amino)-5-(benzo[d]thiazol-6-ylmethylene)-3,5-dihydro-4H-imidazol-4-one]",> 10000,> 10000,> 10000
"O=C1NC(Nc2ccccc2)=N/C1=C\c1ccc2scnc2c1 [Example 14, (Z)-5-(benzo[d]thiazol-5-ylmethylene)-2-(phenylamino)-3,5-dihydro-4H-imidazol-4-one]",> 10000,> 10000,> 10000

# Reference: patent US12643887B2, “Heterocyclic derivatives with cardiomyocyte proliferation activity for treatment of heart diseases” (Tongji University, priority 2019, dated 2026)
